Source: patent US11028066B2, “Inhibitors of lysine specific demethylase-1” (CELGENE QUANTICEL RESEARCH, INC., priority 2014, dated 2021)

Experiments:
[1] = molecular target: full-length human LSD1 (Homo sapiens (Human), UniProt O60341); assay: In vitro enzyme inhibition assay LSD-1 (TR-FRET); format: biochemical; details: H3K4me1-biotin peptide
Description: This assay determines the ability of a test compound to inhibit LSD1 demethylase activity.
The enzymatic assay of LSD1 activity is based on Time Resolved-Fluorescence Resonance Energy Transfer (TR-FRET) detection.
Plates were read by EnVision Multilabel Reader in TR-FRET mode (excitation at 320 nm, emission at 615 nm and 665 nm) after 1 hour incubation at room temperature.
The ability of the compounds disclosed herein to inhibit LSD1 activity was quantified and the respective IC50 value was determined.

[2] = system: THP-1 (AML) cells; assay: LSD1 CD11b cellular assay (flow cytometry); format: cell-based; details: Homo sapiens, THP-1, 96 h; CD11b expressing cells, 4 days incubation
Description: To analyze LSD1 inhibitor efficacy in cells, a CD11b flow cytometry assay was performed. LSD1 inhibition induces CD11b expression in THP-1 (AML) cells which can be measured by flow cytometry. […] LSD1 test compounds were serially diluted in DMSO. The dilutions were added to each well accordingly to a final concentration of 0.2% DMSO. The cells were incubated at 37 degrees Celsius in 5% CO2 for 4 days. 250 μL of each well was transferred to a well in a 96 well round bottom plate. The plate was centrifuged at 1200 rpm at 4 degrees Celsius in a Beckman Coulter Alegra 6KR centrifuge for 5 minutes. The media was removed leaving the cells at the bottom of the wells. The cells were washed in 100 μL cold HBSS (Hank's Balanced Salt Solution) plus 2% BSA (Bovine Serum Albumin) solution and centrifuged at 1200 rpm at 4 degrees Celsius for 5 minutes. The wash was removed. […] The cells were centrifuged and washed two times in 100 μL HBSS plus 2% BSA. After the final spin the cells were resuspended in 100 μL HBSS plus 2% BSA containing 1 ug/mL DAPI (4′,6-diamidino-2-phenylindole). The cells were then analyzed by flow cytometry in a BD FACSAria machine. Cells were analyzed for CD11b expression. The percent of CD11b expressing cells for each inhibitor concentration was used to determine an IC50 curve for each compound analyzed.

IC50 [1] [µM] | IC50 [2] [µM] | SMILES
< 0.1 | < 0.1 | CNC1CCN(c2cc(-c3ccc(C#N)cc3)c(-c3ccc(C)cc3)n(C)c2=O)CC1 [Example 80, 4-{1-methyl-5-[4-(methylamino)piperidyl]-2-(4-methylphenyl)-6-oxo-3-hydropyridyl}benzenecarbonitrile]
< 0.1 | < 0.1 | Cc1ccc(-c2c(-c3ccc(C#N)cc3)nc(N3CCC4CNCC4CC3)c(=O)n2C)cc1 (stereo not shown) [Example 25, 4-(6-{decahydropyrrolo[3,4-d]azepin-6-yl}-4-methyl-3-(4-methylphenyl)-5-oxo-4,5-dihydropyrazin-2-yl)benzonitrile]
< 0.1 | < 0.1 | CCc1ccc(-c2c(-c3ccc(C#N)cc3)nc(N3CCC(N)CC3)c(=O)n2C)cc1 [Example 27, 4-[6-(4-aminopiperidin-1-yl)-3-(4-ethylphenyl)-4-methyl-5-oxo-4,5-dihydropyrazin-2-yl]benzonitrile]
< 0.1 | < 0.1 | COc1ccc(-c2c(-c3ccc(C#N)c(F)c3)cc(N3CCC(N)CC3)c(=O)n2C)cc1 [Example 67, 4-(5-(4-aminopiperidin-1-yl)-2-(4-methoxyphenyl)-1-methyl-6-oxo-1,6-dihydropyridin-3-yl)-2-fluorobenzonitrile]
< 0.1 | < 0.1 | COCCn1c(-c2ccc(C)cc2)c(-c2ccc(C#N)c(F)c2)nc(N2CCC(N)CC2)c1=O [Example 41, 4-[6-(4-amino-piperidin-1-yl)-4-(2-methoxy-ethyl)-5-oxo-3-p-tolyl-4,5-dihydro-pyrazin-2-yl]-2-fluoro-benzonitrile]
< 0.1 | < 0.1 | COCCn1c(-c2ccc(C)cc2)c(-c2ccc(C#N)c(F)c2)nc(NC[C@H]2CCNC2)c1=O [Example 43, 4-(6-{[((3S)-pyrrolidin-3-yl)methyl]amino}-4-(2-methoxyethyl)-3-(4-methylphenyl)-5-oxo(4-hydropyrazin-2-yl))-2-fluorobenzenecarbonitrile]
< 0.1 | < 0.1 | CNC1CCN(c2cc(-c3ccc(C#N)c(F)c3)c(-c3ccc(OC)cc3)n(C)c2=O)CC1 [Example 79, 2-fluoro-4-{2-(4-methoxyphenyl)-1-methyl-5-[4-(methylamino)piperidyl]-6-oxo(3-hydropyridyl)}benzenecarbonitrile]
< 0.1 | < 0.1 | Cc1ccc(-c2c(-c3ccc(C#N)cc3)nc(N3CCCC(N)C3)c(=O)n2C)cc1 (stereo not shown) [Example 22, 4-[6-(3-aminopiperidin-1-yl)-4-methyl-3-(4-methylphenyl)-5-oxo-4,5-dihydropyrazin-2-yl]benzonitrile]
< 0.1 | < 0.1 | Cc1ccc(-c2c(-c3ccc(C#N)cc3)nc(N3CCC(N)CC3)c(=O)n2CCO)cc1 [Example 37, 4-[6-(4-amino-piperidin-1-yl)-4-(2-hydroxy-ethyl)-5-oxo-3-p-tolyl-4,5-dihydro-pyrazin-2-yl]-benzonitrile]
< 0.1 | 0.1 to 1 | COc1cccc(Cn2cc(-c3ccc(C#N)cc3)nc(N3CCC(N)CC3)c2=O)c1 [Example 10, 4-[6-(4-aminopiperidin-1-yl)-4-[(3-methoxyphenyl)methyl]-5-oxo-4,5-dihydropyrazin-2-yl]benzonitrile]
< 0.1 | 0.1 to 1 | N#Cc1ccc(-c2cn(Cc3cccc(F)c3)c(=O)c(N3CCC(N)CC3)n2)cc1 [Example 8, 4-[6-(4-aminopiperidin-1-yl)-4-[(3-fluorophenyl)methyl]-5-oxo-4,5-dihydropyrazin-2-yl]benzonitrile]
< 0.1 | < 0.1 | COc1ccc(-c2c(-c3ccc(C#N)c(F)c3)cc(N3CCC(N)CC3)c(=O)n2CC2CC2)cc1 [Example 85, 4-[5-(4-aminopiperidin-1-yl)-1-(cyclopropylmethyl)-2-(4-methoxyphenyl)-6-oxopyridin-3-yl]-2-fluorobenzonitrile]
< 0.1 | 0.1 to 1 | Cn1c(-c2ccc(C3CC3)cc2)c(-c2ccc(C#N)nc2)nc(NC[C@H]2CCNC2)c1=O [Example 58, 5-{3-(4-cyclopropyl-phenyl)-4-methyl-5-oxo-6-[((3S)-pyrrolidin-3-ylmethyl)-amino]-4,5-dihydro-pyrazin-2-yl}-pyridine-2-carbonitrile]
< 0.1 | 0.1 to 1 | COc1ccc(-c2c(-c3ccc(C#N)nc3)cc(N3CCC(N)CC3)c(=O)n2C)cc1 [Example 68, 5-(5-(4-aminopiperidin-1-yl)-2-(4-methoxyphenyl)-1-methyl-6-oxo-1,6-dihydropyridin-3-yl)picolinonitrile]
< 0.1 | < 0.1 | CCc1ccc(-c2c(-c3ccc(C#N)nc3)cc(NC[C@H]3CCNC3)c(=O)n2C)cc1 [Example 71, (S)-5-(2-(4-ethylphenyl)-1-methyl-6-oxo-5-(pyrrolidin-3-ylmethylamino)-1,6-dihydropyridin-3-yl)picolinonitrile]
< 0.1 | 1 to 10 | C[C@@H](c1ccccc1)n1cc(-c2ccc(C#N)cc2)nc(N2CCC(N)CC2)c1=O [Example 13, 4-[6-(4-aminopiperidin-1-yl)-5-oxo-4-[(1S)-1-phenylethyl]-4,5-dihydropyrazin-2-yl]benzonitrile]
< 0.1 | < 0.1 | Cn1c(-c2ccc(OCC3CC3)cc2)c(-c2ccc(C#N)c(F)c2)nc(NC[C@H]2CCNC2)c1=O [Example 61, 4-{3-(4-cyclopropylmethoxy-phenyl)-4-methyl-5-oxo-6-[((3S)-pyrrolidin-3-ylmethyl)-amino]-4,5-dihydro-pyrazin-2-yl}-2-fluoro-benzonitrile]
< 0.1 | < 0.1 | CNC1CCN(c2nc(-c3ccc(C#N)c(F)c3)c(-c3ccc(C)cc3)n(CCO)c2=O)CC1 [Example 65, 2-Fluoro-4-[4-(2-hydroxy-ethyl)-6-(4-methylamino-piperidin-1-yl)-5-oxo-3-p-tolyl-4,5-dihydro-pyrazin-2-yl]-benzonitrile]
< 0.1 | < 0.1 | CCn1c(-c2ccc(OC)cc2)c(-c2ccc(C#N)cc2)cc(N2CCC(N)CC2)c1=O [Example 82, 4-[5-(4-aminopiperidin-1-yl)-1-ethyl-2-(4-methoxyphenyl)-6-oxopyridin-3-yl]benzonitrile]
< 0.1 | 0.1 to 1 | N#Cc1ccc(-c2cn(Cc3ccccc3)c(=O)c(N3CCC(N)CC3)n2)cc1 [Example 1, 4-[6-(4-aminopiperidin-1-yl)-4-benzyl-5-oxo-4,5-dihydropyrazin-2-yl]benzonitrile]
< 0.1 | 0.1 to 1 | Cc1ccc(-c2c(-c3ccc(C#N)cc3)nc(N3CCC(C)(N)CC3)c(=O)n2C)cc1 [Example 21, 4-[6-(4-amino-4-methylpiperidin-1-yl)-4-methyl-3-(4-methylphenyl)-5-oxo-4,5-dihydropyrazin-2-yl]benzonitrile]
< 0.1 | < 0.1 | CCc1ccc(-c2c(-c3ccc(C#N)c(F)c3)cc(NC[C@H]3CCNC3)c(=O)n2C)cc1 [Example 72, (S)-4-(2-(4-ethylphenyl)-1-methyl-6-oxo-5-(pyrrolidin-3-ylmethylamino)-1,6-dihydropyridin-3-yl)-2-fluorobenzonitrile]
< 0.1 | < 0.1 | CNC1CCN(c2nc(-c3ccc(C#N)c(F)c3)c(-c3ccc(C)cc3)n(CCCO)c2=O)CC1 [Example 64, 2-Fluoro-4-[4-(3-hydroxy-propyl)-6-(4-methylamino-piperidin-1-yl)-5-oxo-3-p-tolyl-4,5-dihydro-pyrazin-2-yl]-benzonitrile]
